For 13 compounds, IC50 results are on record in patent US12673933B2, “Aminopyrazine compounds as HPK1 inhibitor and the use thereof” (BEIGENE, LTD., priority 2019, dated 2026).

The target in this experiment is T1, HPK1 kinase (aa1-346, Life Technologies) (Homo sapiens, UniProt Q92918).
T1 construct: HPK1 kinase (aa1-346, Life Technologies); purchased Life Technologies
T1 sequence (Q92918 1-346): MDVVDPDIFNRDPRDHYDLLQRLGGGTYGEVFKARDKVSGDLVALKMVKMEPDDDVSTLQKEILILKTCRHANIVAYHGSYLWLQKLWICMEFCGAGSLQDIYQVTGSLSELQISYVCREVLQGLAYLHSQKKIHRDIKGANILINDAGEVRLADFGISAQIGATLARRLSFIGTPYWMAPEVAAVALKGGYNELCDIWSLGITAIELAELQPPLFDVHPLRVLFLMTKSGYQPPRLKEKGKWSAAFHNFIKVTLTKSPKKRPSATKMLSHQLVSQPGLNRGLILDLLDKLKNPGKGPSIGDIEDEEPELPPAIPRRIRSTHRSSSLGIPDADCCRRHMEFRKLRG
Nature of the experiment: HPK Kinase Activity Assay at 1 mM ATP (TR-FRET). The class given is biochemical. To be noted: HPK1 kinase 40 nM, 0.5 μM STK1 substrate, read-out: Enzymatic activity IC50. How it is done:
HPK Kinase Activity Assay at 1 mM ATP
Compounds disclosed herein were tested for inhibition of HPK1 kinase (aa1-346, Life Technologies) activity in assays based on the time-resolved fluorescence-resonance energy transfer (TR-FRET) methodology. The assays were carried out in 384-well low volume black plates in a reaction mixture containing HPK1 kinase (40 nM), 1 mM ATP, 0.5 μM STK1 substrate and 0-10 μM compound in buffer containing 50 mM HEPES, 0.01% BSA, 0.1 mM Orthovanadate, 10 mM MgCl2, 1 mM DTT, pH=7.0, 0.005% Tween-20. The kinase was incubated with the compounds disclosed herein or DMSO for 60 minutes at room temperature and the reaction was initiated by the addition of ATP and STK1 substrate. After reaction at room temperature for 120 minutes, an equal volume of stop/detection solution was added according to the manufacture's instruction (CisBio). The stop/detection solution contained STK Antibody-Cryptate and XL665-conjugated streptavidin in Detection Buffer. The TR-FRET signals (ratio of fluorescence emission at 665 nm over emission at 620 nm with excitation at 337 nm wavelength) were recorded on a PHERAstar FS plate reader (BMG Labtech). Phosphorylation of STK1 substrate led to the binding of STK Antibody-Cryptate to the biotinylated STK1 substrate, which places fluorescent donor (Eu^3+ crypate) in close proximity to the accepter (Streptavidin-XL665), thus resulting in a high degree of fluorescence resonance energy transfer. The inhibition of HPK1 in presence of increasing concentrations of compounds was calculated based on the ratio of fluorescence at 665 nm to that at 620 nm. The IC50 for each compound was derived from fitting the data to the four-parameter logistic equation by Graphpad Prism software.
In the case of `Cc1cc(-c2cnc(N)c(O[C@H](C)c3c(Cl)ccc(C(=O)NC4CC4)c3Cl)n2)cc2c1CCN(C)C2` [Example 47A, (R)-3-(1-(3-amino-6-(2,5-dimethyl-1,2,3,4-tetrahydroisoquinolin-7-yl)pyrazin-2-yloxy)ethyl)-2,4-dichloro-N-cyclopropylbenzamide], the IC50 amounted to 47 nM.
Consider `Cc1cc(-c2cnc(N)c(O[C@@H](C)c3c(Cl)ccc(C(=O)NC4CC4)c3Cl)n2)cc2c1CCN(C)C2` [Example 47B, (S)-3-(1-(3-amino-6-(2,5-dimethyl-1,2,3,4-tetrahydroisoquinolin-7-yl)pyrazin-2-yloxy)ethyl)-2,4-dichloro-N-cyclopropylbenzamide], for which the IC50 is 2680 nM.
In the case of `Cc1cc(-c2cnc(N)c(OCc3ccncc3OC3CC3)n2)cc2c1CCN(C)C2` [Example 149, 3-((3-cyclopropoxypyridin-4-yl)methoxy)-5-(2,5-dimethyl-1,2,3,4-tetrahydroisoquinolin-7-yl)pyrazin-2-amine], the IC50 worked out at 16 nM.
The result for `Cc1cc(-c2cnc(N)c(OCc3ccnc(N)c3Cl)n2)cc2c1CCN(C)C2` [Example 152, 3-((2-amino-3-chloropyridin-4-yl)methoxy)-5-(2,5-dimethyl-1,2,3,4-tetrahydroisoquinolin-7-yl)pyrazin-2-amine] reads 21 nM; that for `COc1cc(-c2cnc(N)c(OCc3ccnc(N)c3)n2)cc2c1CCN(C)C2` [Example 179, 3-((2-aminopyridin-4-yl)methoxy)-5-(5-methoxy-2-methyl-1,2,3,4-tetrahydroisoquinolin-7-yl)pyrazin-2-amine], 7.2 nM; that for `COc1cnccc1COc1nc(-c2cc3c(c(OC)c2)CCN(C)C3)cnc1N` [Example 180, 5-(5-methoxy-2-methyl-1,2,3,4-tetrahydroisoquinolin-7-yl)-3-((3-methoxypyridin-4-yl)methoxy)pyrazin-2-amine], 21 nM.
For the compound `COc1cnc2[nH]ccc2c1COc1nc(-c2cc(C)c3c(c2)CN(C)CC3)cnc1N` [Example 188, 5-(2,5-dimethyl-1,2,3,4-tetrahydroisoquinolin-7-yl)-3-((5-methoxy-1H-pyrrolo[2,3-b]pyridin-4-yl)methoxy)pyrazin-2-amine], the IC50 was 8.1 nM.
With `CNc1cc(-c2cnc(N)c(OCc3ccncc3OC)n2)cc2c1CCN(C)C2` [Example 205, 7-(5-amino-6-((3-methoxypyridin-4-yl)methoxy)pyrazin-2-yl)-N,2-dimethyl-1,2,3,4-tetrahydroisoquinolin-5-amine], the IC50 turned out to be 12 nM.
As for `Cc1cc(-c2cnc(N)c(OCc3cc(N)nc(N)c3)n2)cc2c1CCN(C)C2` [Example 222, 4-((3-amino-6-(2,5-dimethyl-1,2,3,4-tetrahydroisoquinolin-7-yl)pyrazin-2-yloxy)methyl)pyridine-2,6-diamine], the half-maximal inhibitory concentration (IC50) turned out to be 4 nM.
On to `Cc1cc(-c2cnc(N)c(Oc3cnn(C(C)C)c3)n2)cc2c1CN(C)CC2` [Example 242, 5-(2,8-dimethyl-1,2,3,4-tetrahydroisoquinolin-6-yl)-3-(1-isopropyl-1H-pyrazol-4-yloxy)pyrazin-2-amine], for which the IC50 is 54 nM.
Take `Cc1cc(-c2cnc(N)c(OCc3ccnc(N)c3OC3CCOCC3)n2)cc2c1CCN(C)C2` [Example 249, 3-((2-amino-3-((tetrahydro-2H-pyran-4-yl)oxy)pyridin-4-yl)methoxy)-5-(2,5-dimethyl-1,2,3,4-tetrahydroisoquinolin-7-yl)pyrazin-2-amine]: the concentration for half-maximal inhibition (IC50) was 8 nM.
As for `[2H]C([2H])(Oc1nc(-c2cc(C)c3c(c2)CN(C)CC3)cnc1N)c1ccnc(N)c1` [Example 266, 3-((2-aminopyridin-4-yl)methoxy-d2)-5-(2,5-dimethyl-1,2,3,4-tetrahydroisoquinolin-7-yl)pyrazin-2-amine], the half-inhibitory concentration (IC50) was determined as 5.1 nM.
Regarding `CN1CCc2c(cc(-c3cnc(N)c(OCc4ccnc(N)c4)n3)cc2C(F)(F)F)C1` [Example 271, 3-((2-aminopyridin-4-yl)methoxy)-5-(2-methyl-5-(trifluoromethyl)-1,2,3,4-tetrahydroisoquinolin-7-yl)pyrazin-2-amine], the concentration for half-maximal inhibition (IC50) amounted to 11 nM.
